Results from publication PMC9481563, “Structural insights into the pSer/pThr dependent regulation of the SHP2 tyrosine phosphatase in insulin and CD28 signaling” (Nature Communications, 2022).
Entries after “also recorded” stand apart in the source; their conditions may differ.

What was measured:
[1] = system: SHP2; details: SHP2 substrate sites, cutoff > 0.5 for genuine substrates; ref [1] Barr AJ et al., Cell 136, 352-63 (2009); cited from earlier work
Excerpt: page 80: Supplementary tables Peptide name Sequence Activity (Arb. u.) CADH2-Y785 […] 0.7 ERBB2-Y1248 […]- 0.6 PGFRB-Y751 […] 1 LCK-Y394 […] 1.3 CSK-Y184 […] 1.5 GHR-Y487 […] 0.8 TIE2-Y816 […] 1.2 ERBB2-Y1139 […] 1.2 WASP-Y290 […] 0.6 PAXI-Y118 […] 0.8 Supplementary table 1. SHP2 substrate sites derived from a large-scale comparative study with quantitative results. A cutoff of > 0.5 was applied to separate genuine SHP2 substrates from spurious signals. ...

[2] = system: wild-type SHP2 catalytic domain; experiment: Capillary electrophoresis dephosphorylation assay, SHP2 catalytic domain; assay type: biochemical, human; details: for % nominal product: WT-SHP2 catalytic domain
Experimental: Phosphorylation and dephosphorylation assays with peptides were performed using capillary electrophoresis on an Agilent Capillary Electrophoresis ^3DCE system (Agilent Technologies, Waldbronn, Germany) applying DB-WAX coated silica capillary having a 33.5 cm total and 25 cm effective length with 50 μm I.D. (Agilent Technologies, Santa Clara, CA, USA). On-line absorption at 200 nm was monitored by DAD UV-Vis detector. The capillary was thermostated at 25 °C. Before measurements the capillary was rinsed subsequently with distilled water for 15 min and between measurements with BGE (100 mM trimethylamine-phosphate buffer (pH 2.5)) for 3 min. Samples were injected by 5 × 103 Pa pressure for 6 s. Runs were performed in the positive-polarity mode with 20 kV. […] The reaction was initialized by addition of the phosphatase enzyme. Kinase reactions were realized with the following buffer: 20 mM potassium phosphate (monobasic), 15 mM sodium phosphate (dibasic), 100 mM NaCl, 5 mM MgCl2, 5% glycerol, 0,05% non-ionic detergent IGEPAL, pH 7.5; reaction was started with the addition of 1 mM of ATP. Sampling from reactions was done in real time, except when conditions required pre-concentration of samples (with PTP1B only). In the latter case, reactions were run in 15 ml Falcon tubes, using an NH4HCO3-based buffer (100 mM end concentration), with 5 nM enzyme. After heat inactivation (10 min at 75 °C), the latter samples were lyophilized until dry and reconstituted in 40 ul distilled H2O. Kinetic curves in the article are always presented with exponential fits (that approximate the integrated Michaelis-Menten functions decently on the measured time intervals).

[3] = system: tyrosine kinase domain of the human insulin receptor (InsR); experiment: Capillary electrophoresis phosphorylation assay, InsR kinase domain; assay type: biochemical; details: CE assay, effect of pSer vs non-phosphorylated peptide of the pair; 1 mM ATP, pH 7.5; n = 1
Experimental: Ni-NTA purified stocks were subjected to anion exchange chromatography using an Äkta explorer instrument (Amersham Pharmacia) and Resource Q columns (GE healthcare). Prior to anion exchange, all proteins were dialyzed overnight against a low salt buffer (10–50 mM NaCl, 20 mM TRIS [pH = 8.0], 10% glycerol and 1 mM 1,4-dithiothreitol [DTT]) using a Servapor MWCO 12,000–14,000 membrane. Proteins loaded onto the column were eluted using a salt gradient up to 1 M NaCl over 30 min. Purity of proteins was assessed by SDS-PAGE and final samples were typically found to have >95% purity (see Supplementary figs. 85, 86). The protein aliquots were snap-frozen in liquid nitrogen and stored in −80 °C. […]
Phosphorylation and dephosphorylation assays with peptides were performed using capillary electrophoresis on an Agilent Capillary Electrophoresis ^3DCE system (Agilent Technologies, Waldbronn, Germany) applying DB-WAX coated silica capillary having a 33.5 cm total and 25 cm effective length with 50 μm I.D. (Agilent Technologies, Santa Clara, CA, USA). On-line absorption at 200 nm was monitored by DAD UV-Vis detector. […] Kinetic curves in the article are always presented with exponential fits (that approximate the integrated Michaelis-Menten functions decently on the measured time intervals).

[4] = system: HEK293T cells co-transfected with IRS1-FLAG (wild-type or Ser/Ala mutant) and constitutive active SHP2; experiment: Cell-based IRS1 Y612 phosphorylation assay (western blot) after insulin; design: species or system human
Experimental: HEK293T cells (#CRL-3216 ATCC, Manassas, VA USA) were maintained in DMEM (#41966029 Gibco, Waltham MA USA) supplemented with 10% FBS (#10500064 Gibco), 1% penicillin-streptomycin (#P0781-100ML Sigma, St. Louis MI USA) and 0.1% Amphotericin B (#15290026 Gibco). Cells were plated into 24-well plates in 7.5 × 10^4/well concentration and co-transfected with wild-type or Ser/Ala mutant pcDNA3.1-IRS1-FLAG and constitutive active pcDNA3.1-SHP2 plasmids using Lipofectamine 3000 (#L3000008 Invitrogen) reagent following the manufacturer’s instruction. After overnight serum-starvation cells were treated with 1 µM insulin (I9278, Sigma) for 0–30 min and harvested in Western sample buffer. Samples were run in 4–20% gradient gel (#4561096 BioRad, Hercules, CA USA) and transferred to nitrocellulose membrane using Transblot-Turbo System (#1704271 BioRad). Membranes were incubated in 1:5000 M2 anti-FLAG (#1804-200UG Sigma) and 1:1000 anti-pY612-IRS1 (#44-816 G Invitrogen) overnight and labelled with 1:10000 IRDye anti- mouse 680 (#92668070 LICOR Biosciences, Lincoln, NE USA) and 1:10.000 IRDye anti- rabbit 800 […] (#92632211 LICOR Biosciences) secondary antibodies. Membranes were scanned using the Odyssey CLx Fluorescence Imaging System (LICOR Biosciences, v5.2.5.).

[5] = 19 min, average of 3 replicates
[6] = 35 min, average of 3 replicates

TPTAENPEYLGLDVPV- [ERBB2-Y1248, SHP2 substrate site peptide from a large-scale comparative study]
Activity (Arb. u.) [1]: 0.6 Arb. u.

HPPEPK{pSer}PGE{pTyr}VNIEFGS [ppRev-IRS1, IRS1 Y896 peptide with pSer in addition to pTyr, for dephosphorylation assays]
tyrosine dephosphorylation rate (in words) ([2]; CE assay, substrate 50 μM, enzyme 25 nM, 50 mM TRIS, 150 mM NaCl, 1 mM EDTA, 2 mM DTT, IGEPAL 0.1%, pH 7.4): superior reaction rates; also recorded: greatly enhanced | % nominal product [2, 5]: 47.8% | % nominal product ([2]; 19 min, replicate 01): 47.7% | % nominal product ([2]; 19 min, replicate 02): 59.3% | % nominal product ([2]; 19 min, replicate 03): 36.5% | % nominal product [2, 6]: 52.8% | % nominal product ([2]; 35 min, replicate 01): 58.7% | % nominal product ([2]; 35 min, replicate 02): 60.4% | % nominal product ([2]; 35 min, replicate 03): 39.2% | % nominal product ([2]; 51 min, average of 3 replicates): 55.2% | % nominal product ([2]; 51 min, replicate 01): 60.3% | % nominal product ([2]; 51 min, replicate 02): 61.2% | % nominal product ([2]; 51 min, replicate 03): 44.1%

HPPEPKSPGE{pTyr}VNIEFGS [p0Rev-IRS1, IRS1 Y896 peptide, phosphotyrosine-only, used for dephosphorylation assays]
% nominal product [2, 5]: 2.9% | % nominal product ([2]; 19 min, replicate 01): 4.9% | % nominal product ([2]; 19 min, replicate 02): 4.1% | % nominal product ([2]; 19 min, replicate 03): -0.2% | % nominal product [2, 6]: 2.1% | % nominal product ([2]; 35 min, replicate 01): 2.3% | % nominal product ([2]; 35 min, replicate 02): 1.9% | % nominal product ([2]; 35 min, replicate 03): 2.2% | % nominal product ([2]; 51 min, replicate 01): 8.3% | % nominal product ([2]; 51 min, replicate 02): 2.0% | % nominal product ([2]; 51 min, replicate 03): 1.3%

RVGEEEHVYSFPNKQKS [PAXI-Y118, SHP2 substrate site peptide from a large-scale comparative study]
Activity (Arb. u.) [1]: 0.8 Arb. u.

TVAAQDEFYRSGWALNM [CSK-Y184, SHP2 substrate site peptide from a large-scale comparative study]
Activity (Arb. u.) [1]: 1.5 Arb. u.

LTCSPQPEYVNQPDVRP [ERBB2-Y1139, SHP2 substrate site peptide from a large-scale comparative study]
Activity (Arb. u.) [1]: 1.2 Arb. u.

HPPEPK{pSer}PGEYVNIEFGS [0pRev-IRS1, IRS1 Y896 motif peptide with −4 pSer only]
tyrosine phosphorylation by InsR kinase (in words) [3]: altered kinetics to a very limited degree; also recorded: no major differences

ARLIEDNEYTAREGAKF [LCK-Y394, SHP2 substrate site peptide from a large-scale comparative study]
Activity (Arb. u.) [1]: 1.3 Arb. u.

KNNPDPTIYPVLDWNDI [TIE2-Y816, SHP2 substrate site peptide from a large-scale comparative study]
Activity (Arb. u.) [1]: 1.2 Arb. u.

DAETSKLIYDFIEDQGG [WASP-Y290, SHP2 substrate site peptide from a large-scale comparative study]
Activity (Arb. u.) [1]: 0.6 Arb. u.

wt
pY612-IRS1/FLAG ratio, Median value ([4]; Supp Fig 13, baseline analysis, median of 12): 0.0394 | pY612-IRS1/FLAG ratio, Median value ([4]; Supp Fig 13, time course analysis, 0 min, median of 10): 0.0379 | pY612-IRS1/FLAG ratio, Median value ([4]; Supp Fig 13, time course analysis, 15 min, median of 10): 0.4550 | pY612-IRS1/FLAG ratio, Median value ([4]; Supp Fig 14, baseline analysis, median of 3): 0.0140

SSLSNIDFYAQVSDITP [GHR-Y487, SHP2 substrate site peptide from a large-scale comparative study]
Activity (Arb. u.) [1]: 0.8 Arb. u.

GRKGSGDYMPM{pSer}PKS [0pIRS1, IRS1 Y632 peptide with pSer only, InsR kinase substrate]
tyrosine phosphorylation by InsR kinase (in words) [3]: failed to indicate any major effect; also recorded: altered kinetics to a very limited degree

MSKDESVDYVPMLDMKG [PGFRB-Y751, SHP2 substrate site peptide from a large-scale comparative study]
Activity (Arb. u.) [1]: 1 Arb. u.

GGGEEDQDYDLSQLQQP [CADH2-Y785, SHP2 substrate site peptide from a large-scale comparative study]
Activity (Arb. u.) [1]: 0.7 Arb. u.
